In patent US20250241328A1, “REDUCTANT TREATMENT METHODS FOR FOOD PRODUCT PRECURSORS” (Impossible Foods Inc., priority 2022, published 2025):

Experiments:
[1] = Percent suspended solids after HTST of LegH Prep; format: physicochemical; details: HTST 20 seconds, 68-72° C.
From the text: Suspended solid formation is likely due to aggregation or denaturation of the Pichia proteins within LegH Prep in response to heat. […] Increased suspended solids changes the physical properties of the protein solution and are typically associated with increased viscosity.

bacterial bioburden = experiment: Bacterial bioburden of heme samples following HTST treatment; format: cell-based; details: 15 mM and 35 mM cysteine, heme samples at pH 9.5
[2] = Colorimetric properties (L*c*h) of LegH Prep after HTST; format: physicochemical; details: HTST 20 seconds, 68-72° C.
Protocol: This color decline is due to LegH denaturation as well as potentially off-color formation produced by Pichia proteins in response to heat. […] FIG. 6 was performed at 15 mM cysteine, a temperature of 65° C., and a duration of 20 seconds. Performing HTST in the presence of cysteine results in less change in both chroma and hue angle show a decrease after HTST compared to performing HTST in the absence of cysteine.

[3] = tested on: aerobic plate count (gram negative and gram positive bacteria); experiment: Refrigerated shelf-life study of HTST-treated soy leghemoglobin, aerobic plate count; format: cell-based; details: HTST-treated soy leghemoglobin (LegH)
From the text: APC captures both gram negative and gram positive bacteria, whereas lactic acid bacteria (LAB) captures gram positive bacteria (FIG. 1B).

LegH = target: T1, LegH (Glycine max, UniProt P02236); experiment: LegH concentration after HTST of LegH Prep by UPLC (thermostability); format: physicochemical, soy; details: HTST 20 seconds, 68-72° C.
T1 construct: made in house; host or cells: Pichia
Protocol: This decrease in concentration is due to LegH aggregating or denaturing in response to heat. […] For UPLC, there is a resolved peak at the LegH retention time that can be tracked by 415 nm absorbance but the integration is performed on the 280 nm peak at that position.

Salmonella = experiment: Pathogen reduction during HTST in leghemoglobin samples; format: cell-based; details: cysteine treatment during HTST
From the text: (§1) Salmonella and E. coli are gram negative bacteria, and Listeria is gram positive. Addition of cysteine reduced the CFU/g of E. coli even in the absence of heat.
(§2) FIGS. 2A, 2B, and 2C are tables showing the reduction of pathogens in leghemoglobin samples with and without cysteine.

E. coli = experiment: as above; format: cell-based
From the text: as §1, §2

Listeria = experiment: as above; format: cell-based; details: cysteine treatment during HTST
From the text: as §1, §2

T1 sequence (P02236 whole entry): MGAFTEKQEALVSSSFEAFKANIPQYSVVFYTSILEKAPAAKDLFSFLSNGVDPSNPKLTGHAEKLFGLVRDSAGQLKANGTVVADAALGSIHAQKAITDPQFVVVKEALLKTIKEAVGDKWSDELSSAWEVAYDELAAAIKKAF

With N[C@@H](CS)C(=O)O [cysteine, L-cysteine] the “increase in percent suspended solids (% SS) after HTST” value [1] was “diminished in a dose-dependent manner”, the “bacterial bioburden CFU/g following HTST treatment” value (bacterial bioburden) was “decreases bacterial bioburden” and the “decline in L*c*h after HTST” value [2] was “diminished in a dose-dependent manner”. For the same compound, the “aerobic plate count (APC) stability” value [3] was “cysteine-dependent increase”, the “decrease in LegH concentration after HTST” value (LegH) was “diminished in a dose-dependent manner” and the “CFU/g reduction of Salmonella” value (Salmonella) was “significantly increased”. The “CFU/g reduction of E. coli” value (E. coli; cysteine treatment during HTST) was “significantly increased”, the “CFU/g of E. coli” value (E. coli; in the absence of heat) was “reduced” and the “CFU/g reduction of Listeria” value (Listeria) was “significantly increased”.
